In US7919680B2, “Nucleic acids encoding anthelmintic agents and plants made therefrom” (Divergence, Inc., priority 2004, dated 2011):

Tests used:
[1] = test system: everted hamster jejunal and ileal segments; details: Gaginella et al. (1975); cited from earlier work
C. elegans [2] = test: Nematicidal activity of methyl ester, salt and free fatty acid emulsions vs. C. elegans N2s (Table 3); assay type: in vivo, Caenorhabditis elegans
Text: Nematicidal Activity of Single Fatty Acid Methyl Ester, Salt and Free Fatty Acid Emulsions Against Caenorhabditis elegans […] and Dauers

[3] = test system: isolated intestinal epithelial cells; details: Gaginella et al. (1977); cited from earlier work
C. elegans dauers = test: Nematicidal activity of methyl ester, salt and free fatty acid emulsions vs. C. elegans dauers (Table 4); assay type: in vivo, Caenorhabditis elegans
[4] = test system: wide spectrum of divergent nematode genera; test: Summary of Table 6: free-living, animal parasitic and plant parasitic nematodes; assay type: in vivo; details: concentrations of 0.1% and 0.01%
Procedure: (§1) Briefly, the indicated fatty acid emulsions were added to nematodes in wells of a 24-well plate and rapidly mixed by swirling. […] Results shown are mean % values obtained from multiple independent experiments

P. scribneri = test: Nematicidal activity of fatty acid methyl ester emulsions, nematode spectrum (Table 6); assay type: in vivo, Pratylenchus scribneri; details: P. scribneri mixed stage
Procedure: as §1
(§2) The Caenorhabditis elegans were mixed stage populations. Similar effects were seen on several other free-living nematode species. The Parastrongyloides trichosuri (parasite of Australian bushtail possum) were dauer-like infective 3rd stage larva. Similar effects are also seen against free-living stages. The Meloidogyne incognita and Meloidogyne javanica (root knot nematode) were 2nd stage juveniles (dauer-like infective stage). The Heterodera glycines (soybean cyst nematode) were 2nd stage juveniles (dauer-like infective stage). Finally, the Pratylenchus scribneri (corn lesion nematode) were mixed stage populations.

tomato seedlings = test: Phytotoxicity evaluation of fatty acid methyl esters on tomato seedlings; assay type: in vivo; details: 250 μl of 1% emulsion at stem-media interface of two-week seedlings
Procedure: Sterilized tomato seeds were germinated in magenta jars containing Gamborg's agar media. After two weeks of growth, seedlings were treated with 250 μl of 1% fatty acid methyl ester emulsion (nonanoic acid, ricinoleic acid, ricinelaidic acid, oleic acid, or a control emulsion lacking any fatty acid), applied directly to the stem-media interface. Tomato seedlings were scored at various times after application of emulsions.

M. incognita [5] = test: Nematicidal activity of fatty acid methyl ester emulsions, nematode spectrum (Table 6); assay type: in vivo, Meloidogyne incognita; details: M. incognita 2nd stage juveniles, head 24 hr, b171 48 hours
Procedure: as §1, §2

C. elegans [6] = test: Nematicidal activity of fatty acid methyl ester emulsions against C. elegans (Table 2)
M. javanica [7] = test: Nematicidal activity of fatty acid methyl ester emulsions, nematode spectrum (Table 6); assay type: in vivo, Meloidogyne javanica; details: M. javanica 2nd stage juveniles, head 24 hr, b171 48 hours
Procedure: as §1, §2

P. trichosuri = test: as above; assay type: in vivo, Parastrongyloides trichosuri; details: P. trichosuri infective 3rd stage larva
Procedure: as §1, §2

M. incognita [8] = test: Nematicidal activity of fatty acid methyl ester emulsions against root knot nematode J2 larvae (Table 5); assay type: in vivo; details: 0.1% emulsion; 48 hours incubation, counted about 24 hours after transfer to plates
Procedure: (§3) M. incognita and M. javanica were prepared from tomato roots. The roots were bleached and the debris was separated from the J2 larvae and eggs by filtration followed by sucrose density gradient centrifugation. Eggs were hatched over 4 days at 15° C. and the J2 larvae were collected by passage though a filter, followed by centrifugation.
(§4) Nematodes and emulsions were incubated with shaking at room temperature for 48 hours. The contents of each well were transferred to a small spot on individual NGM plates lacking bacteria. About 24 hours after the transfer to plates, worms on and off the inoculation spot were counted as not viable or viable, respectively. Worms were considered viable if they had crawled away from the inoculation spot, or if they were moving. Worms were considered non-viable if they remained at the inoculation spot.

M. javanica [9] = test: as above; assay type: in vivo; details: 0.1% emulsion; 48 hours incubation, counted about 24 hours after transfer to plates
Procedure: as §3, §4

H. glycines = test: Nematicidal activity of fatty acid methyl ester emulsions, nematode spectrum (Table 6); assay type: in vivo, Heterodera glycines; details: H. glycines 2nd stage juveniles, head 24 hr, b171 48 hours
Procedure: as §1, §2

C. elegans [10] = test: as above; assay type: in vivo, Caenorhabditis elegans; details: C. elegans mixed stage
Procedure: as §1, §2

L4 and adult C. elegans = details: Stadler and coworkers; cited from earlier work
Caenorhabditis elegans = details: 100 μg/mL over 24 hours; Momin & Nair (2002); cited from earlier work
Panagrellus redivivus = details: 100 μg/mL over 24 hours; Momin & Nair (2002); cited from earlier work

SMILES: CCCCCC[C@@H](O)C/C=C\CCCCCCCC(=O)O [R free acid, ricinoleic acid]
- effect on water and electrolyte absorption [1]: inhibitory effect
- worm death (C. elegans [2]; 0.001% emulsion): <5%
- worm death (C. elegans [2]; 0.01% emulsion): 50%
- worm death (C. elegans [2]; 0.1% emulsion): 95%
- cytotoxicity [3]: cytotoxic
- worm death (C. elegans dauers; 0.01% emulsion): 75%
- worm death (C. elegans dauers; 0.1% emulsion): 90%

SMILES: CCCCCC[C@@H](O)C/C=C\CCCCCCCC(=O)OC [Ricinoleic Acid (C18-methyl ester), ricinoleic acid methyl ester]
- nematicidal activity [4]: strongly nematicidal
- % Worm Death (24 hr) (P. scribneri; 0.01% solution): <20%
- % Worm Death (24 hr) (P. scribneri; 0.1% solution): <20%
- phytotoxic effects on tomato seedlings (tomato seedlings): low phytotoxicity
- % Worm Death (24 hr) (M. incognita [5]; 0.01% solution): 83%
- % Worm Death (24 hr) (M. incognita [5]; 0.1% solution): 95%
- Percentage of Worm Death 1 hr (C. elegans [6]; 0.003% emulsion): 40%
- Percentage of Worm Death 6 hr (C. elegans [6]; 0.003% emulsion): 40%
- Percentage of Worm Death 24 hr (C. elegans [6]; 0.003% emulsion): 40%
- Percentage of Worm Death 1 hr (C. elegans [6]; 0.1% emulsion): 80%
- Percentage of Worm Death 6 hr (C. elegans [6]; 0.1% emulsion): 80%
- Percentage of Worm Death 24 hr (C. elegans [6]; 0.1% emulsion): 90%
- nematicidal activity (C. elegans [6]; concentration of 0.1%): strongly nematicidal
- time before strong killing effects are apparent (C. elegans [6]; emulsion, Table 2): up to 30 minutes
- % Worm Death (24 hr) (M. javanica [7]; 0.01% solution): 5%
- % Worm Death (24 hr) (M. javanica [7]; 0.1% solution): 60%
- % Worm Death (24 hr) (P. trichosuri; 0.01% solution): ~60%
- % Worm Death (24 hr) (P. trichosuri; 0.1% solution): ~50%
- M. incognita (% not viable) (M. incognita [8]): 95%
- M. javanica (% not viable) (M. javanica [9]): 60%
- effect on water and electrolyte absorption [1]: ineffective
- % Worm Death (24 hr) (H. glycines; 0.001% solution): ~40%
- % Worm Death (24 hr) (H. glycines; 0.01% solution): ~60%
- % Worm Death (24 hr) (H. glycines; 0.1% solution): ~60%
- worm death (C. elegans [2]; 0.001% emulsion): 20%
- worm death (C. elegans [2]; 0.01% emulsion): 40%
- worm death (C. elegans [2]; 0.1% emulsion): 90%
- worm death (C. elegans dauers; 0.01% emulsion): 30%
- worm death (C. elegans dauers; 0.1% emulsion): 70%
- % Worm Death (24 hr) (C. elegans [10]; 0.001% solution): 30%
- % Worm Death (24 hr) (C. elegans [10]; 0.01% solution): 50%
- % Worm Death (24 hr) (C. elegans [10]; 0.1% solution): 90%

SMILES: CCCCCCCC/C=C\CCCCCCCC(=O)O [oleic acid]
- LD50 (L4 and adult C. elegans): 25 µg/mL
- LD90 (L4 and adult C. elegans): 100 µg/mL
- nematicidal activity (Caenorhabditis elegans): not nematicidal
- nematicidal activity (Panagrellus redivivus): not nematicidal
